Experimental data published in patent publication US20160052887A1, “PHARMACEUTICALLY ACCEPTABLE AMINE SALTS OF PITAVASTATIN” (DSM SINOCHEM PHARMACEUTICALS NETHERLANDS B.V., priority 2013, published 2016).
Where a name gives a salt, the structure may show the parent alone.

What was measured:
[1] = Solubility of pitavastatin salts in buffers of pH 1.2 and pH 4.8; assay type: physicochemical; conditions: for Appearance: appearance of the mixture at the reported pH and amount of salt added
Text: The pharmaceutically acceptable pitavastatin salts obtained above were subjected to solubility measurements. […] Amounts of added salt were increased as long as the resulting solution remained clear and the resulting pH value, as well as the total amount of salt added, are reported in the below Table.
The following observations were made. The solubility of pitavastatin calcium salt is very low, initially the compound floated on the buffer. In contrast, the solubility of the amine salts was much higher; in many cases solutions were still clear after more than 160 mg·g^−1 solution was added. For the amine salts, pH values increased to values as reported in the Table upon increasing addition of salt (indicating exhaustion of buffer capacity due to high salt solubility). […] Qualitatively, the speed of dissolution of the amine salts was much faster than the speed of dissolution of the calcium salt. The pitavastatin amine salts were not hygroscopic (qualitative determination).

[2] = Basic toxicological evaluation

| SMILES | Appearance [1] | also measured |
| --- | --- | --- |
| NCc1ccco1.O=C(O)C[C@H](O)C[C@H](O)/C=C/c1c(C2CC2)nc2ccccc2c1-c1ccc(F)cc1 [Furfurylamine salt, pitavastatin-furfuryl amine salt] | Suspension |  |
| O=C(O)C[C@H](O)C[C@H](O)/C=C/c1c(C2CC2)nc2ccccc2c1-c1ccc(F)cc1 [Tris(hydroxymethyl)-aminomethane salt, pitavastatin-tris(hydroxymethyl)aminomethane salt] | Clear |  |
| O=C(O)C[C@H](O)C[C@H](O)/C=C/c1c(C2CC2)nc2ccccc2c1-c1ccc(F)cc1 [L-Lysine salt, pitavastatin-lysine salt] |  | Solubility (observation in words) ([1]; starting with a buffer of pH 4.8 (entry at pH 4.5)): very low |
| O=C(O)C[C@H](O)C[C@H](O)/C=C/c1c(C2CC2)nc2ccccc2c1-c1ccc(F)cc1 [Calcium salt, pitavastatin-Ca, reference compound] | Suspension | Solubility (observation in words) ([1]; aqueous buffers): very low |
| NCc1ccco1 [1-furfurylamine] |  | Toxicological classification [2]: very safe |
| O=C(O)C[C@H](O)C[C@H](O)/C=C/c1c(C2CC2)nc2ccccc2c1-c1ccc(F)cc1 [Choline salt, pitavastatin-choline salt] | Clear |  |
